{"source": "patent US8088806B2", "about": "(Achillion Pharmaceuticals, Inc., priority 2005, dated 2012)", "data": [{"tested_on": "HCV replicon", "assay": "Replicon based assay of HCV replication inhibition (NPT ELISA)", "type": "cell-based, Hepatitis C virus", "details": "Hepatitis C virus, Huh-7, 72 h, Table I; Huh-7 HCV replicon-containing cells, three days; read-out: Activity", "how_it_was_run": "(§1)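 Huh-7 cells carrying a bicistronic HCV replicon (neo, EMCV-IRES-driven NS3–NS5B) treated overnight after seeding with usually 6 concentrations, 10 to 0.03 micromolar, for three days at 37° C without G418. Replication read as NPT level by captured ELISA; matched-DMSO wells and interferon alpha as controls.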", "units": {"EC50": "nM"}, "values": [{"smiles": "c1cncc(-c2csc(Nc3ccc(-c4csnn4)cc3)n2)c1", "note": "[compound 102, N-(4-(1,2,3-thiadiazol-4-yl)phenyl)-4-(pyridin-3-yl)thiazol-2-amine]", "EC50": "> 10000"}, {"smiles": "CCCCCOc1ccc(Nc2nc(-c3cccnc3)cs2)cc1F", "note": "[compound 68, N-(3-fluoro-4-(pentyloxy)phenyl)-4-(pyridin-3-yl)thiazol-2-amine]", "EC50": "< 1000"}, {"smiles": "CCCCCOc1ccc(NC(=O)c2nc(-c3cccnc3)cs2)cc1C(F)(F)F", "note": "[compound 112, N-(3-(trifluoromethyl)-4-(pentyloxy)phenyl)-4-(pyridin-3-yl)thiazole-2-carboxamide]", "EC50": "> 10000"}, {"smiles": "CCOC(=O)c1cc(-c2csc(Nc3cccc(OCc4ccccc4)c3)n2)on1", "note": "[compound 195, ethyl 5-(2-(3-(benzyloxy)phenylamino)thiazol-4-yl)isoxazole-3-carboxylate]", "EC50": "> 10000"}, {"smiles": "CCCCCOc1ccc(Nc2nc(-c3ccc(OC(F)F)cc3)cs2)cc1C(F)(F)F", "note": "[compound 4, 4-(4-(difluoromethoxy)phenyl)-N-(3-(trifluoromethyl)-4-(pentyloxy)phenyl)thiazol-2-amine]", "EC50": "< 1000"}, {"smiles": "CCCCCOc1ccc(Nc2nc(-c3ccc(F)c(F)c3)cs2)cc1C(F)(F)F", "note": "[compound 133, N-(3-(trifluoromethyl)-4-(pentyloxy)phenyl)-4-(3,4-difluorophenyl)thiazol-2-amine]", "EC50": "< 1000"}, {"smiles": "CCCCCOc1ccc(Nc2nc(-c3cnccn3)cs2)cc1C(F)(F)F", "note": "[compound 156, N-(3-(trifluoromethyl)-4-(pentyloxy)phenyl)-4-(pyrazin-2-yl)thiazol-2-amine]", "EC50": "< 1000"}, {"smiles": "CCN(CC)S(=O)(=O)c1ccc(-c2csc(Nc3ccc(Br)cc3)n2)cc1", "note": "[compound 120, N-(4-bromophenyl)-4-diethylaminosulfonyl-phenyl-2-amine]", "EC50": "> 10000"}]}, {"tested_on": "HCV replicon", "assay": "Replicon based assay of HCV replication inhibition (NPT ELISA)", "type": "cell-based, Hepatitis C virus", "details": "Hepatitis C virus, Huh-7, 72 h, Table III; Huh-7 HCV replicon-containing cells, three days; read-out: Activity", "how_it_was_run": "as §1", "units": {"EC50": "nM"}, "values": [{"smiles": "CCCCCCCCOc1ccc(Nc2nc(-c3cncc(C#N)c3)cs2)cc1", "note": "[compound 655, 5-(2-(4-(octyloxy)phenylamino)thiazol-4-yl)pyridine-3-carbonitrile]", "EC50": "< 1000"}, {"smiles": "CCCCCCC(C)Oc1ccc(Nc2nc(-c3ccc(N)nc3)cs2)cc1C(F)(F)F", "note": "(centres unmarked) [compound 677, 5-(2-(3-(trifluoromethyl)-4-(octan-2-yloxy)phenylamino)thiazol-4-yl)pyridin-2-amine]", "EC50": "< 1000"}, {"smiles": "Fc1ccc(-c2csc(Nc3ccc(OCC4CCCCC4)c(F)c3)n2)cn1", "note": "[compound 530, N-(4-(cyclohexylmethoxy)-3-fluorophenyl)-4-(6-fluoropyridin-3-yl)thiazol-2-amine]", "EC50": "< 1000"}, {"smiles": "CCCCCCCCOc1ccc(Nc2nc(-c3ccc(N(C)C)nc3)cs2)cc1C(F)(F)F", "note": "[compound 541, 5-(2-(3-(trifluoromethyl)-4-(octyloxy)phenylamino)thiazol-4-yl)-N,N-dimethylpyridin-2-amine]", "EC50": "< 1000"}, {"smiles": "CCCCCOc1ccc(Nc2nc(-c3ccc4c(c3)OCO4)cs2)cc1C(F)(F)F", "note": "[compound 534, 4-(benzo[d][1,3]dioxol-6-yl)-N-(3-(trifluoromethyl)-4-(pentyloxy)phenyl)thiazol-2-amine]", "EC50": "< 1000"}, {"smiles": "CCCCCCCCOc1ccc(Nc2nc(-c3ncccn3)cs2)cc1C(F)(F)F", "note": "[compound 681, N-(3-(trifluoromethyl)-4-(octyloxy)phenyl)-4-(pyrimidin-2-yl)thiazol-2-amine]", "EC50": "< 1000"}, {"smiles": "CN(C)CCCOc1ccc(Nc2nc(-c3cccnc3)cs2)cc1C(F)(F)F", "note": "[compound 695, N-(4-(3-(dimethylamino)propoxy)-3-(trifluoromethyl)phenyl)-4-(pyridin-3-yl)thiazol-2-amine]", "EC50": "1000 to 10000"}, {"smiles": "N#Cc1ccc(-c2csc(Nc3ccc(OC4CCCC4)c(C(F)(F)F)c3)n2)cn1", "note": "[compound 616, 5-(2-(4-(cyclopentyloxy)-3-(trifluoromethyl)phenylamino)thiazol-4-yl)pyridine-2-carbonitrile]", "EC50": "< 1000"}, {"smiles": "CC(C)CCCC(C)CCOc1ccc(Nc2nc(-c3cccnc3)cs2)cc1C(F)(F)F", "note": "(centres unmarked) [compound 691, N-(4-(3,7-dimethyloctyloxy)-3-(trifluoromethyl)phenyl)-4-(pyridin-3-yl)thiazol-2-amine]", "EC50": "< 1000"}, {"smiles": "CCCCCOc1ccc(Nc2nc(-c3ccc[n+]([O-])c3)cs2)cc1C(F)(F)F", "note": "[compound 521]", "EC50": "< 1000"}]}, {"tested_on": "HCV replicon", "assay": "Replicon based assay of HCV replication inhibition (NPT ELISA)", "type": "cell-based, Hepatitis C virus", "details": "Hepatitis C virus, replicon based assay of HCV replication inhibition; Table II; read-out: Activity", "how_it_was_run": "as §1", "units": {"EC50": "nM"}, "values": [{"smiles": "CCCCCCCOc1ccc(Nc2nc(-c3ccc(F)cc3F)cs2)cc1", "note": "[compound 423, 4-(2,4-difluorophenyl)-N-(4-(heptyloxy)phenyl)thiazol-2-amine]", "EC50": "< 1000"}, {"smiles": "CCCCCOc1ccc(Nc2nc(-c3c[nH]c4ccccc34)cs2)cc1C(F)(F)F", "note": "[compound 410, N-(3-(trifluoromethyl)-4-(pentyloxy)phenyl)-4-(1H-indol-3-yl)thiazol-2-amine]", "EC50": "< 1000"}, {"smiles": "CCCCCOc1ccc(Nc2nc(CNCc3cccnc3)cs2)cc1C(F)(F)F", "note": "[compound 260, N-(4-(pentyloxy)-3-(trifluoromethyl)phenyl)-4-((pyridin-3-ylmethylamino)methyl)thia-zol-2-amine]", "EC50": "< 1000"}, {"smiles": "CCCCCCCCOc1ccc(Nc2nc(-c3cccs3)cs2)cc1", "note": "[compound 360, N-(4-(octyloxy)phenyl)-4-(thiophen-2-yl)thiazol-2-amine]", "EC50": "< 1000"}, {"smiles": "CCCCCCOc1ccc(Nc2nc(-c3ccc(F)cc3)cs2)cc1", "note": "[compound 452, 4-(4-fluorophenyl)-N-(4-(hexyloxy)phenyl)thiazol-2-amine]", "EC50": "< 1000"}, {"smiles": "c1ccc(Oc2cccc(Nc3nc(-c4cc5cnccc5o4)cs3)c2)cc1", "note": "[compound 363, 4-(furo[3,2-c]pyridin-2-yl)-N-(3-phenoxyphenyl)thiazol-2-amine]", "EC50": "> 10000"}, {"smiles": "CCCCCOc1ccc(Nc2nc(-c3ccc(F)nc3)cs2)cc1C(F)(F)F", "note": "[compound 486, N-(3-(trifluoromethyl)-4-(pentyloxy)phenyl)-4-(6-fluoropyridin-3-yl)thiazol-2-amine]", "EC50": "< 1000"}, {"smiles": "Cc1sc(Nc2ccc(OC3CCCC3)c(C(F)(F)F)c2)nc1-c1ccc(CC(=O)O)cc1", "note": "[compound 245, 2-(4-(2-(4-(cyclopentyloxy)-3-(trifluoromethyl)phenyl-amino)-5-methylthiazol-4-yl)phenyl)acetic acid]", "EC50": "< 1000"}, {"smiles": "CC(C)COc1ccc(Nc2nc(-c3ccc(F)cc3)cs2)cc1C(F)(F)F", "note": "[compound 242, 4-(4-fluorophenyl)-N-(4-isobutoxy-3-(trifluoromethyl)phenyl)thia-zol-2-amine]", "EC50": "< 1000"}, {"smiles": "CCCCCOc1ccc(Nc2nc(-c3ccc(OC)nc3)cs2)cc1C(F)(F)F", "note": "[compound 378, 4-(6-methoxypyridin-3-yl)-N-(4-(pentyloxy)-3-(trifluoromethyl)phenyl)thia-zol-2-amine]", "EC50": "< 1000"}, {"smiles": "CCCCCCCOc1ccc(Nc2nc(-c3ccc(Cl)c(Cl)c3)cs2)cc1", "note": "[compound 421, 4-(3,4-dichlorophenyl)-N-(4-(heptyloxy)phenyl)thiazol-2-amine]", "EC50": "< 1000"}, {"smiles": "CCCCCCCCOc1ccc(Nc2nc(-c3ccc(O)c(C(N)=O)c3)cs2)cc1", "note": "[compound 449, 5-(2-(4-(octyloxy)phenylamino)thia-zol-4-yl)-2-hydroxybenzamide]", "EC50": "< 1000"}]}, {"tested_on": "HCV replicon", "assay": "Replicon based assay of HCV replication inhibition (NPT ELISA)", "type": "cell-based, Hepatitis C virus", "details": "Hepatitis C virus, replicon based assay of HCV replication inhibition; Table IV; read-out: Activity", "how_it_was_run": "as §1", "units": {"EC50": "nM"}, "values": [{"smiles": "CCOC(=O)Cc1csc(Nc2nc(-c3cccnc3)cs2)n1", "note": "[compound 790, ethyl 2-(2-(4-(pyridin-3-yl)thiazol-2-ylamino)thiazol-4-yl)acetate]", "EC50": "> 10000"}, {"smiles": "COc1ccc(Nc2nc(-c3cccnc3)cs2)cc1OC1CCCC1", "note": "[compound 741, N-(3-(cyclopentyloxy)-4-methoxyphenyl)-4-(pyridin-3-yl)thiazol-2-amine]", "EC50": "1000 to 10000"}, {"smiles": "CCOC(=O)Cc1ccc(-c2csc(Nc3ccc(OCCCCc4cccs4)c(C(F)(F)F)c3)n2)s1", "note": "[compound 926, ethyl 2-(5-(2-(4-(4-(thiophen-2-yl)butoxy)-3-(trifluoromethyl)phenylamino)thiazol-4-yl)thiophen-2-yl)acetate]", "EC50": "1000 to 10000"}, {"smiles": "CCCCCCCCOc1ccc(Nc2nc(-c3ccc(O)nc3)cs2)cc1C(F)(F)F", "note": "[compound 733, 5-(2-(3-(trifluoromethyl)-4-(octyloxy)phenylamino)thiazol-4-yl)pyridin-2-ol]", "EC50": "< 1000"}, {"smiles": "CCCCCCCCOc1ccc(Nc2nc(-c3ccc(CC(=O)O)s3)cs2)cc1C(F)(F)F", "note": "[compound 849, 2-(5-(2-(3-(trifluoromethyl)-4-(octyloxy)phenylamino)thiazol-4-yl)thiophen-2-yl)acetic acid]", "EC50": "< 1000"}, {"smiles": "CCCCCCC=Cc1ccc(Nc2nc(-c3cccnc3)cs2)cc1C(F)(F)F", "note": "[compound 822, N-(3-(trifluoromethyl)-4-(oct-1-enyl)phenyl)-4-(pyridin-3-yl)thiazol-2-amine]", "EC50": "< 1000"}, {"smiles": "NC(=O)c1sccc1-c1csc(Nc2ccc(OCC3CCCCC3)c(F)c2)n1", "note": "[compound 725, 3-(2-(4-(cyclohexylmethoxy)-3-fluorophenylamino)thiazol-4-yl)thiophene-2-carboxamide]", "EC50": "< 1000"}, {"smiles": "COc1ncc(-c2csc(Nc3ccc4c(ccn4Cc4ccc(F)cc4)c3)n2)cn1", "note": "[compound 919, 1-(4-fluorobenzyl)-N-(4-(2-methoxypyrimidin-5-yl)thiazol-2-yl)-1H-indol-5-amine]", "EC50": "1000 to 10000"}, {"smiles": "FC(F)(F)c1cc(Nc2nc(-c3cccnc3)cs2)ccc1OCCCc1cccnc1", "note": "[compound 800, N-(4-(3-(pyridin-3-yl)propoxy)-3-(trifluoromethyl)phenyl)-4-(pyridin-3-yl)thiazol-2-amine]", "EC50": "< 1000"}, {"smiles": "CCCCCCCCc1ccc(Nc2nc(-c3cnc(OC)nc3)cs2)cc1C(F)(F)F", "note": "[compound 826, N-(3-(trifluoromethyl)-4-octylphenyl)-4-(2-methoxypyrimidin-5-yl)thiazol-2-amine]", "EC50": "< 1000"}, {"smiles": "CCCCCCCCOc1ccc(Nc2nc(-c3cnc(O)nc3)cs2)cc1C(F)(F)F", "note": "[compound 840, 5-(2-(3-(trifluoromethyl)-4-(octyloxy)phenylamino)thiazol-4-yl)pyrimidin-2-ol]", "EC50": "< 1000"}]}]}
